From patent US11053204B2, “Pyrimidinyloxy benzene derivatives as herbicides” (FMC Corporation, priority 2015, dated 2021)

Legend:
Type in all cases: in vivo
[1] = system: crabgrass, large (large crabgrass, Digitaria sanguinalis); experiment: Test C postemergence, plant response rating; settings: for Plant response rating, Crabgrass, Large: scale 0 to 100; for Crabgrass, Large plant response rating: scale 0 to 100 (0 no effect, 100 complete control)
From the text: (§1) Seeds of plant species selected from blackgrass (Alopecurus myosuroides), ryegrass, Italian (Italian ryegrass, Lolium multiflorum), wheat (winter wheat, Triticum aestivum), galium (catchweed bedstraw, Galium aparine), corn (Zea mays), crabgrass, large (large crabgrass, Digitaria sanguinalis), foxtail, giant (giant foxtail, Setaria faberii), johnsongrass (Sorghum halepense), lambsquarters (Chenopodium album), morningglory (Ipomoea coccinea), nutsedge, yellow (yellow nutsedge, Cyperus esculentus), pigweed (Amaranthus retroflexus), ragweed (common ragweed, Ambrosia elatior), soybean (Glycine max), barnyardgrass (Echinochloa crus-galli), oilseed rape (Brassica napus), pigweed, palmer (palmer pigweed, Amaranthus palmeri), waterhemp (common waterhemp, Amaranthus rudis), velvetleaf (Abutilon theophrasti), kochia (Kochia scoparia), surinam grass (Brachiaria decumbens), nightshade (eastern black nightshade, Solanum ptycanthum), wild poinsettia (Euphorbia heterophylla), windgrass (Apera spica-venti), and oat, wild (wild oat Avena fatua), were planted into a blend of loam soil and sand or a silt loam soil and treated preemergence with test chemicals formulated in a non-phytotoxic solvent mixture which included a surfactant.
(§2) At the same time, plants selected from these crop and weed species and also chickweed (common chickweed, Stellaria media), buckwheat, wild (wild buckwheat, Polygonum convolvulus), wild mustard (Sinapis arvensis), field poppy (Papaver rhoeas), field violet (Viola arvensis), geranium, cutleaf (cutleaf geranium, Geranium dissectum), Canada thistle (Cirsium arvense), and speedwell (bird's-eye speedwell, Veronica persica), were planted in pots containing Sunshine Redi-Earth® planting medium comprising spaghnum peat moss, vermiculite, starter nutrients and dolomitic limestone and treated with postemergence applications of test chemicals formulated in the same manner. Plants ranged in height from 2 to 18 cm (1- to 4-leaf stage) for postemergence treatments. Treated plants and controls were maintained in a greenhouse for 13 to 15 d, after which time all species were compared to controls and visually evaluated. Plant response ratings, summarized in Table C, are based on a scale of 0 to 100 where 0 is no effect and 100 is complete control. A dash (-) response means no test result.

[2] = system: wheat (winter wheat, Triticum aestivum); experiment: Test C postemergence, plant response rating; settings: for Plant response rating, Wheat: scale 0 to 100; for Wheat plant response rating: scale 0 to 100 (0 no effect, 100 complete control)
From the text: as §1, §2

[3] = system: foxtail, giant (giant foxtail, Setaria faberii); experiment: Test C postemergence, plant response rating; settings: for Plant response rating, Foxtail, Giant: scale 0 to 100; for Foxtail, Giant plant response rating: scale 0 to 100 (0 no effect, 100 complete control)
From the text: as §1, §2

corn (Zea mays) = experiment: Test C postemergence, plant response rating; settings: for Plant response rating, Corn: scale 0 to 100; for Corn plant response rating: scale 0 to 100 (0 no effect, 100 complete control)
From the text: as §1, §2

[4] = system: ryegrass, Italian (Italian ryegrass, Lolium multiflorum); experiment: Test C postemergence, plant response rating; settings: for Plant response rating, Ryegrass, Italian: scale 0 to 100; for Ryegrass, Italian plant response rating: scale 0 to 100 (0 no effect, 100 complete control)
From the text: as §1, §2

soybean (Glycine max) = experiment: Test C postemergence, plant response rating; settings: for Plant response rating, Soybean: scale 0 to 100; for Soybean plant response rating: scale 0 to 100 (0 no effect, 100 complete control)
From the text: as §1, §2

[5] = system: oat, wild (wild oat Avena fatua); experiment: Test C postemergence, plant response rating; settings: for Plant response rating, Oat, Wild: scale 0 to 100; for Oat, Wild plant response rating: scale 0 to 100 (0 no effect, 100 complete control)
From the text: as §1, §2

[6] = system: nutsedge, yellow (yellow nutsedge, Cyperus esculentus); experiment: Test C postemergence, plant response rating; settings: for Plant response rating, Nutsedge, Yellow: scale 0 to 100; for Nutsedge, Yellow plant response rating: scale 0 to 100 (0 no effect, 100 complete control)
From the text: as §1, §2

[7] = system: chickweed (common chickweed, Stellaria media); experiment: Test C postemergence, plant response rating; settings: for Plant response rating, Chickweed: scale 0 to 100; for Chickweed plant response rating: scale 0 to 100 (0 no effect, 100 complete control)
From the text: as §1, §2

[8] = system: blackgrass (Alopecurus myosuroides); experiment: Test C postemergence, plant response rating; settings: for Plant response rating, Blackgrass: scale 0 to 100; for Blackgrass plant response rating: scale 0 to 100 (0 no effect, 100 complete control)
From the text: as §1, §2

[9] = system: galium (catchweed bedstraw, Galium aparine); experiment: Test C postemergence, plant response rating; settings: for Plant response rating, Galium: scale 0 to 100; for Galium plant response rating: scale 0 to 100 (0 no effect, 100 complete control)
From the text: as §1, §2

[10] = system: lambsquarters (Chenopodium album); experiment: Test C postemergence, plant response rating; settings: for Plant response rating, Lambsquarters: scale 0 to 100; for Lambsquarters plant response rating: scale 0 to 100 (0 no effect, 100 complete control)
From the text: as §1, §2

[11] = system: pigweed (Amaranthus retroflexus); experiment: Test A preemergence, visual injury rating; settings: 0 to 100 scale (0 no effect, 100 complete control)
Method in brief: (§3)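 Visual injury scored 0–100 (100 = complete control) against untreated controls about 10 days after treatment in a greenhouse. Test chemicals, formulated with surfactant in non-phytotoxic solvent, were sprayed on soil preemergence or on 2-10 cm, one- to two-leaf plants postemergence.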

[12] = system: giant foxtail (Setaria faberii); experiment: Test A preemergence, visual injury rating; settings: 0 to 100 scale (0 no effect, 100 complete control)
Method in brief: as §3

kochia (Kochia scoparia) = experiment: Test A preemergence, visual injury rating; settings: 0 to 100 scale (0 no effect, 100 complete control)
Method in brief: as §3

[13] = system: ragweed (common ragweed, Ambrosia elatior); experiment: Test A preemergence, visual injury rating; settings: 0 to 100 scale (0 no effect, 100 complete control)
Method in brief: as §3

[14] = system: barnyardgrass (Echinochloa crus-galli); experiment: Test A preemergence, visual injury rating; settings: 0 to 100 scale (0 no effect, 100 complete control)
Method in brief: as §3

[15] = system: Italian ryegrass (Lolium multiflorum); experiment: Test A preemergence, visual injury rating; settings: 0 to 100 scale (0 no effect, 100 complete control)
Method in brief: as §3

`CCCC(=O)c1c(Br)cccc1Oc1ncc(Cl)cn1` [Compound 75] was tested, and the “Plant response rating, Crabgrass, Large” value ([1]; 16 g ai/ha) was 10, the “Plant response rating, Crabgrass, Large” value ([1]; 31 g ai/ha) was 10 and the “Crabgrass, Large plant response rating” value ([1]; 62 g ai/ha) was 15. The “Crabgrass, Large plant response rating” value ([1]; 125 g ai/ha) was 25, the “Plant response rating, Wheat” value ([2]; 16 g ai/ha) was 0 and the “Plant response rating, Wheat” value ([2]; 31 g ai/ha) was 5. The “Wheat plant response rating” value ([2]; 62 g ai/ha) was 0, the “Wheat plant response rating” value ([2]; 125 g ai/ha) was 10 and the “Plant response rating, Foxtail, Giant” value ([3]; 16 g ai/ha) was 10. For the same molecule, the “Plant response rating, Foxtail, Giant” value ([3]; 31 g ai/ha) was 10, the “Foxtail, Giant plant response rating” value ([3]; 62 g ai/ha) was 10 and the “Foxtail, Giant plant response rating” value ([3]; 125 g ai/ha) was 25. For the same molecule, the “Plant response rating, Corn” value (corn (Zea mays); 16 g ai/ha) was 10, the “Plant response rating, Corn” value (corn (Zea mays); 31 g ai/ha) was 15 and the “Corn plant response rating” value (corn (Zea mays); 62 g ai/ha) was 15. The “Corn plant response rating” value (corn (Zea mays); 125 g ai/ha) was 20, the “Plant response rating, Ryegrass, Italian” value ([4]; 16 g ai/ha) was 0 and the “Plant response rating, Ryegrass, Italian” value ([4]; 31 g ai/ha) was 10. For the same molecule, the “Ryegrass, Italian plant response rating” value ([4]; 62 g ai/ha) was 10, the “Ryegrass, Italian plant response rating” value ([4]; 125 g ai/ha) was 5 and the “Plant response rating, Soybean” value (soybean (Glycine max); 16 g ai/ha) was 50. For the same molecule, the “Plant response rating, Soybean” value (soybean (Glycine max); 31 g ai/ha) was 65, the “Soybean plant response rating” value (soybean (Glycine max); 62 g ai/ha) was 85 and the “Soybean plant response rating” value (soybean (Glycine max); 125 g ai/ha) was 85. The “Plant response rating, Oat, Wild” value ([5]; 16 g ai/ha) was 5, the “Plant response rating, Oat, Wild” value ([5]; 31 g ai/ha) was 35 and the “Oat, Wild plant response rating” value ([5]; 62 g ai/ha) was 40. The “Oat, Wild plant response rating” value ([5]; 125 g ai/ha) was 35, the “Plant response rating, Nutsedge, Yellow” value ([6]; 16 g ai/ha) was 0 and the “Plant response rating, Nutsedge, Yellow” value ([6]; 31 g ai/ha) was 0. The “Nutsedge, Yellow plant response rating” value ([6]; 62 g ai/ha) was 0, the “Nutsedge, Yellow plant response rating” value ([6]; 125 g ai/ha) was 5 and the “Plant response rating, Chickweed” value ([7]; 16 g ai/ha) was 60. The “Plant response rating, Chickweed” value ([7]; 31 g ai/ha) was 85, the “Chickweed plant response rating” value ([7]; 62 g ai/ha) was 90 and the “Chickweed plant response rating” value ([7]; 125 g ai/ha) was 98. For the same molecule, the “Plant response rating, Blackgrass” value ([8]; 16 g ai/ha) was 0, the “Plant response rating, Blackgrass” value ([8]; 31 g ai/ha) was 5 and the “Blackgrass plant response rating” value ([8]; 62 g ai/ha) was 10. For the same molecule, the “Blackgrass plant response rating” value ([8]; 125 g ai/ha) was 30, the “Plant response rating, Galium” value ([9]; 16 g ai/ha) was 40 and the “Plant response rating, Galium” value ([9]; 31 g ai/ha) was 70. The “Galium plant response rating” value ([9]; 62 g ai/ha) was 70, the “Galium plant response rating” value ([9]; 125 g ai/ha) was 80 and the “Plant response rating, Lambsquarters” value ([10]; 16 g ai/ha) was 50. The “Plant response rating, Lambsquarters” value ([10]; 31 g ai/ha) was 55, the “Lambsquarters plant response rating” value ([10]; 62 g ai/ha) was 70 and the “Lambsquarters plant response rating” value ([10]; 125 g ai/ha) was 90. The “Pigweed plant response rating” value ([11]; 125 g ai/ha) was 100, the “Pigweed plant response rating” value ([11]; 500 g ai/ha) was 100 and the “Foxtail, Giant plant response rating” value ([12]; 125 g ai/ha) was 100. For the same molecule, the “Foxtail, Giant plant response rating” value ([12]; 500 g ai/ha) was 100, the “Kochia plant response rating” value (kochia (Kochia scoparia); 125 g ai/ha) was 80 and the “Kochia plant response rating” value (kochia (Kochia scoparia); 500 g ai/ha) was 100. The “Ragweed plant response rating” value ([13]; 125 g ai/ha) was 0, the “Ragweed plant response rating” value ([13]; 500 g ai/ha) was 10 and the “Barnyardgrass plant response rating” value ([14]; 125 g ai/ha) was 100. For the same molecule, the “Barnyardgrass plant response rating” value ([14]; 500 g ai/ha) was 100, the “Ryegrass, Italian plant response rating” value ([15]; 125 g ai/ha) was 80 and the “Ryegrass, Italian plant response rating” value ([15]; 500 g ai/ha) was 100.
